Results reported in patent US20170340742A1, “A METHOD FOR DELIVERING A SUBSTANCE INTO CELLS” (TECHNISCHE UNIVERSITÄT DARMSTADT, priority 2014, published 2017).
No end group written: not given here. Ahx = NCCCCCC(=O)O

System: living cells
Assay: Comparative test of cellular penetration of cell-penetrating compounds with and without mediator compounds at low and high pH
Format: cell-based
Design: key: −: no uptake detectable; +: low efficiency of uptake detectable; ++: moderate efficiency of uptake detectable; +++: strong de efficiency of uptake detectable; ++++: very strong efficiency of uptake detectable
Settings: compound 2 μM, 30 min
Procedure: A comparative test of cellular penetration of different cell-penetrating compounds was performed in the presence and absence of different mediator compounds at low and high pH. The cell-penetrating compounds (2 μM) and the mediator compounds (6 μM) were mixed in Hepes buffers at low pH (6.5) and high pH (8.5).
The cell media (DMEM) was removed and exchanged by these solutions and incubated for 30 min. Then the solutions were removed and the cells were embedded back in cell culture media (DMEM) and imaged. The efficiency of uptake in the different conditions was determined.
The determined efficacy is depicted with increasing efficacy from “−” no uptake detectable, “+” low efficiency of uptake detectable, “++” moderate efficiency of uptake detectable, “+++” strong de efficiency of uptake detectable, “++++” very strong efficiency of uptake detectable.

Measured: Efficiency of uptake

TAMRA-Ahx-LGQQQPFPPQQPY ({TAMRA-Ahx}-LGQQQPFPPQQPY)
−: Mediator 1: Curcumin 6 μM, high pH of 8.5 | Mediator 1: Curcumin 6 μM, low pH of 6.5 | Mediator 2: Levothyroxine 6 μM, high pH of 8.5 | Mediator 2: Levothyroxine 6 μM, low pH of 6.5 | no mediator, high pH of 8.5 | no mediator, low pH of 6.5
